Laboratory results from patent publication US8529872B2, “Seeds and markers for use in imaging” (Board of Regents, The University of Texas System, priority 2007, dated 2013).
Where two headings read alike, the source gives them in different places.

Legend:
[1] = Octanol-water partition coefficient; type: physicochemical
Experimental: […] The resulting biphasic solution was shaken vigorously for two hours at which point 400 μL of the octanol layer and 400 μL of the water layer were removed. The solvent from each sample was removed under reduced pressure and the mass of the compound in the octanol sample was divided by the mass of the compound in the water sample. This experiment was repeated in triplicate, and the results were averaged to give the Log (Poct/wat) values. All complexes were completely soluble in the mixture of octanol and water.

[2] = pH of aqua solution of contrast agent; type: physicochemical
Experimental: For preparation of aqua solution of contrast agent, the as-synthesized cobalt/glycine crystallites were dissolved in distillated water (0.3-10 wt %) and stirred at the room temperature with a magnetic stir bar for 1 h and then sonicated for 30 min.
The value of pH varied from 2.6 to 6.5.

[3] = Viscosity of contrast agent solution (Brookfield viscometer); type: physicochemical; conditions: room temperature
Experimental: Viscosity of contrast agent solution was measured at room temperature by using Brookfield digital viscometer DV-II.

[4] = Surface tension of contrast agents (Fisher 21 tensiometer); type: physicochemical
From the text: The Fisher 21 tensiometer was used to measure surface tension of contrast agents with accuracy t within +/−0.25%.

[5] = Magnetic properties of contrast agent solutions by VSM; type: physicochemical
Experimental: The magnetic properties of contrast agent solutions were determined by VSM (Vibrating Sample Magnetometer) at room temperature and magnetic field up to 1.5 T.
FIG. 20a-20d show the magnetic properties of various aqua solutions of Co/glycine with concentration 1, 3, 5, 8 and 10%.

[6] = MR relaxation measurements of C4 complex at 1.5 T; type: physicochemical; conditions: for T1 (ms) μ / T2 (ms) μ: 1.5T, 23° C.
Experimental: (§1) MR imaging measurements were performed on a 1.5 T clinical scanner (Excite HD, GEHT, Waukesha, Wis.) to characterize the relaxation properties of the new cobalt complex after each new modification of the C4 chemistry was made. Several iterations were performed before obtaining a stable sample. Additional measurements at 3.0 T (Excite HD, GEHT, Waukesha, Wis.) were made once the design of the C4 complex was stable. Each session or iteration (n=5) took approximately 2 hours to collect all the relaxation data.
[…] Theses solutions were placed in a water bath and imaged at room temperature (23° C.). Experiments were performed to ascertain the spin-lattice relaxivity (R1), spin-spin relaxivity (R2) and true spin-spin relaxivity (R2*) at 1.5 T and 3 T using a volume knee coil to excite and receive the MR signal.
(§2) R1 measurements were performed using a spin-echo inversion recovery (SE-IR) sequence with parameters: Inversion Time (TI)={0.05, 0.1, 0.2, 0.3, 0.4, 0.5, 0.6, 0.7, 0.8, 0.9, 1.0, 1.2, 1.4, 1.6, 1.8, 2.0} sec, Pulse Repetition Time (TR)=5000, Time to Echo (TE)=10 ms, slice thickness=3 mm, acquisition matrix=256 (frequency)×128 (phase), receiver bandwidth (rBW)=±15 kHz and the number of excitations (NEX)=1.
(§3) R2 measurements were carried out using an SE sequence with parameters: TE={15, 20, 40, 60, 100, 150, 200, 250, 300 and 500 ms}, TR=5000 ms, slice thickness=3 mm, matrix size=256×128, rBW=±15 kHz and NEX=1.
(§4) The slopes of R1 and R2 curve versus concentration were used to determine the relaxivity (r1 and r2) in mM^−1 s^−1 as shown in the following tables. A weighted least-linear squares fitting routine was written in MATLAB to calculate the fit parameters accounting for the uncertainty as well as calculating the net uncertainty in the derived measurement. Note that in the final quantitative analysis, R2* measurements are excluded since the samples seemed to have interfering magnetic effects that could alter results.

[7] = MR relaxation measurements of C4 complex at 3.0 T; type: physicochemical; conditions: 3.0T; for T1 (ms) μ / T2 (ms) μ: 23° C.
Experimental: as §1
Concentrations of the complex were prepared in 0.1%, 0.3%, 0.5%, 0.75% and 1.0% solutions provided by the UH group. Theses solutions were placed in a water bath and imaged at room temperature (23° C.). Experiments were performed to ascertain the spin-lattice relaxivity (R1), spin-spin relaxivity (R2) and true spin-spin relaxivity (R2*) at 1.5 T and 3 T using a volume knee coil to excite and receive the MR signal.
as §2, §3, §4

[8] = Characterization of the C4 complex at 7 T; type: physicochemical; design: T2 / T1 / T2* / T2*-2: unit not given here; conditions: for T2*-2: second T2* measurement
Experimental: […] Characteristic T1, T2, and T2* relaxation times of the preparations were measured at each concentration. T1 measurements were made using a fast spin-echo saturation-recovery sequence (TE=63 ms; TR=400 ms, 500 ms, 1000 ms, 1500 ms, 2500 ms, 500 ms; FOV=3.2 cm×3.2 cm; matrix=64×64; echo train length=12; slice thickness=1 mm). T2 measurements were made using a CPMG multi-spin-echo sequence (TE=n×15 ms, 1≦n≦24; TR=1100 ms). T2* measurements were made using a multi-gradient echo sequence (TE=1.5 ms+n×[…], 0≦n≦15; TR=500 ms, 4000 ms). The image matrix and slice prescription for all measurements were kept constant. The characteristic T1, T2, and T2* relaxation time constants of each compartment were measured using Paravision 4.0, and the relaxivities of the contrast agent were estimated by fitting measured data to the Solomon-Bloembergen-Morgan model using Matlab.

[9] = Temporal stability of R1 of the cobalt complex; type: physicochemical; conditions: taken 54 days apart
[10] = cited from earlier work
[11] = T1 relaxivity of Gd-chelated polymeric contrast agent at 1.5 T; type: physicochemical
From the text: A Gd-chelated polymeric MRI contrast agent 20 (Gd Hydrogel) based on a biodegradable, biocompatible poly(L-glutamic acid) (L-PG) backbone was also synthesized and characterized. […] “Blooming” occurs with MR imaging when the contrast agent 20 is encapsulated by titanium and cannot be visualized due to the susceptibility artifacts
To characterize the contrast agents 20, they were filtrated and injected into the glass capillary tube with 4 mm in length and OD=0.8 mm, ID=0.5 mm with volume of 0.5-1 μL. Water-proton relaxivities were measured at variable temperature (278-335 K), and as a function of magnetic field (1.5 T, 3 T, 4.7 T, and 7 T). Slight differences between the relaxivities of these agents at different field strengths will require slightly different concentrations for optimal visibility at these field strengths. By pH dependency of the proton relaxivities we will evaluate the synthesized CAM for pH-responsive MRI contrast agent 20 applications. Although 4.7 T is not a field strength commonly associated with clinical MRI, it complements the data collected at more clinically relevant field strengths and helps to identify trends in agent relaxivity.

[12] = 1.5 T (23° C.), De Bazelaire 2004

(CoCl2)n(C2H5NO2)1-n [Example C4]
Partition Coefficient, Log P ([1]; contrast agent solution 0.5 %): (−0.15) −
Partition Coefficient, Log P ([1]; contrast agent solution 5 %): (−0.09)
pH ([2]; contrast agent solution 0.5 %): 6.1
pH ([2]; contrast agent solution 5 %): 3.2
Viscosity ([3]; contrast agent solution 0.5 %): 1.0 cP
Viscosity ([3]; contrast agent solution 5 %): 1.1 cP
Surface tension ([4]; contrast agent solution 0.5 %): 72.8 dynes/cm
Surface tension ([4]; contrast agent solution 5 %): 73.6 dynes/cm
Magnetic properties ([5]; contrast agent solution 0.5 %): paramagnetic
Magnetic properties ([5]; contrast agent solution 5 %): paramagnetic
T1 relaxation time ([6]; 0.1%-8.25 mM): 782 ms
relaxivity r1 ([6]; 1.5 T): 0.086 ± 0.006 mM/s
relaxivity r1, Slope μ ([6]; 1.5 T): 0.086 mM⁻¹ s⁻¹
relaxivity r2 ([6]; 1.5 T): 0.097 ± 0.010 mM/s
T1 (ms) μ ([6]; 0.10 % Wt, 8.25 mM): 782.0 ms
T2 (ms) μ ([6]; 0.10 % Wt, 8.25 mM): 836.0 ms
T1 (ms) μ ([6]; 0.30 % Wt, 24.76 mM): 379.0 ms
T2 (ms) μ ([6]; 0.30 % Wt, 24.76 mM): 354.0 ms
T1 (ms) μ ([6]; 0.50 % Wt, 41.27 mM): 235.0 ms
T2 (ms) μ ([6]; 0.50 % Wt, 41.27 mM): 215.0 ms
T1 (ms) μ ([6]; 0.75 % Wt, 61.90 mM): 172.0 ms
T2 (ms) μ ([6]; 0.75 % Wt, 61.90 mM): 153.0 ms
T1 (ms) μ ([6]; 1.00 % Wt, 82.53 mM): 130.0 ms
T2 (ms) μ ([6]; 1.00 % Wt, 82.53 mM): 120.0 ms
T1 relaxation time ([6]; 10%-825 mM): 61 ms
relaxivity r1, Slope μ [7]: 0.070 mM⁻¹ s⁻¹
T1 (ms) μ ([7]; 0.10 % Wt, 8.25 mM): 866.0 ms
T2 (ms) μ ([7]; 0.10 % Wt, 8.25 mM): 530.0 ms
T1 (ms) μ ([7]; 0.30 % Wt, 24.76 mM): 432.0 ms
T2 (ms) μ ([7]; 0.30 % Wt, 24.76 mM): 215.0 ms
T1 (ms) μ ([7]; 0.50 % Wt, 41.27 mM): 288.0 ms
T2 (ms) μ ([7]; 0.50 % Wt, 41.27 mM): 124.0 ms
T1 (ms) μ ([7]; 0.75 % Wt, 61.90 mM): 202.0 ms
T2 (ms) μ ([7]; 0.75 % Wt, 61.90 mM): 104.0 ms
T1 (ms) μ ([7]; 1.00 % Wt, 82.53 mM): 164.0 ms
T2 (ms) μ ([7]; 1.00 % Wt, 82.53 mM): 105.0 ms
R1 (T1 relaxivity estimate) [8]: R1 = 0.0979
T1 relaxivity [8]: 0.0979 mM/s
T2* relaxivity [8]: ~0.618 mM/s
T2 relaxivity [8]: 0.502 mM/s
T1 ([8]; 8.25 mM): 980.805
T2 ([8]; 8.25 mM): 74.85
T2* ([8]; 8.25 mM): 141.415
T2*-2 ([8]; 8.25 mM): 146.68
T1 ([8]; 24.76 mM): 524.66
T2 ([8]; 24.76 mM): 45.175
T2* ([8]; 24.76 mM): 50.42
T2*-2 ([8]; 24.76 mM): 52.755
T1 ([8]; 41.27 mM): 533.955
T2 ([8]; 41.27 mM): 31.14
T2* ([8]; 41.27 mM): 32.37
T2*-2 ([8]; 41.27 mM): 34.135
T1 ([8]; 61.9 mM): 160.45
T2 ([8]; 61.9 mM): 22.96
T2* ([8]; 61.9 mM): 24.85
T2*-2 ([8]; 61.9 mM): 25.55
T1 ([8]; 82.53 mM): 116.5
T2 ([8]; 82.53 mM): 20.84
T2* ([8]; 82.53 mM): 17.99
T2*-2 ([8]; 82.53 mM): 17.64
degradation or breakdown over time: difference between two R1 measurements [9]: no statistically significant difference was observed

CNC[C@H](O)[C@@H](O)[C@H](O)[C@H](O)CO.CNC[C@H](O)[C@@H](O)[C@H](O)[C@H](O)CO.O=C([O-])CN(CCN(CC(=O)[O-])CC(=O)O)CCN(CC(=O)[O-])CC(=O)O.[Gd+3] [Magnevist]
r2/r1 [10, 12]: 1.12±0.01
relaxivity r1 [10, 12]: 4.68 ± 0.06 mM/s
relaxivity r2 [10, 12]: 5.57 ± 0.07 mM/s
relaxivity ([10]; 1.5 T in phosphate-buffered saline, Unger 1999): 4.1 mM⁻¹ s⁻¹
T1 relaxivity ([10]; 7 T, for reference): approximately 5.3 (mM·s)^−1

L-PG-Bz-DTPA-Gd
T1 relaxivity [11]: 25 mM⁻¹ s⁻¹
T1 relaxivity, times greater than that of Gd-DTPA [11]: more than 6 times
